Here are results for 14 compounds from US10800784B2, “Nitrogen-containing heterocyclic amide compound and pharmaceutical use thereof” (Japan Tobacco Inc., priority 2018, dated 2020).

pIC50: −log10 of the molar value. Bounds are passed on as bounds.

The target in experiment [1] is human PDHK1 (hPDHK1) (Homo sapiens (Human), UniProt Q15118). Kind of experiment: Inhibitory action of PDHK1 activity in vitro (residual PDH activity after PDHK reaction). In kind it is biochemical. The note with it: for pIC50: PDH/hPDHK1 complex solution, PDHK reaction at room temperature for 45 min, NADH absorbance at 340 nm, read-out: hPDK1 IC50; for inhibition at 0.003 µM: at 3 nmol/L, shown when IC50 value could not be calculated, read-out: hPDHK1 inhibitory rate at the lowest concentration of the test compound. As to the method: (§1) The inhibitory action of PDHK activity was assessed indirectly by measuring the residual PDH activity after PDHK reaction in the presence of a test compound.
(Inhibitory Action of PDHK1 Activity)
In the case of human PDHK1 (hPDHK1, NCBI Reference Database Accession number NM_002610.3), a 1.3 kbp fragment encoding this protein was isolated from human liver cDNA by polymerase chain reaction (PCR). Modified hPDHK1 cDNA wherein FLAG-Tag sequence was added to the N terminus was prepared by PCR and ligated to the NdeI/EcoRI site of pET-17b vector (Merck MGaA, model number 69663-3). The recombinant construct was transformed into Escherichia coli DH5a (TOYOBO, model number DNA-903). The recombinant clones were identified, and plasmid DNA was isolated and subjected to the DNA sequence analysis. One clone which had the expected nucleic acid sequence was selected for expression work.
For expression of hPDHK1 activity, Escherichia coli strain BL21(DE3) cells (Merck KGaA, model number 69450-4) were transformed with the pET17b vector containing modified hPDHK1 cDNA. The Escherichia coli were grown to an optical density 0.6 ([…]) at 30° C. Protein expression was induced by the addition of 500 μmol/L isopropyl-β-thiogalactopyranoside. The Escherichia coli were cultured at 20° C. for 17-18 hr and harvested by centrifugation.
The harvested Escherichia coli was resuspended in a suspension buffer (20 mmol/L N-(2-hydroxyethyl)piperazine-N′-2-ethanesulfonic acid-sodium hydroxide (HEPES-NaOH), 500 mmol/L sodium chloride, 1% ethylene glycol, and 0.1% polyoxyethylene-polyoxypropylene block copolymer (Pluronic F-68), complete, EDTA-free (pH 8.0)) and disrupted by a microfluidizer M-110H (MIZUHO INDUSTRIAL CO., LTD.) or ultrasonication. The precipitate was removed by centrifugation and the supernatant was added to DDDDK-tagged Protein PURIFICATION GEL (MBL, model number 3329). DDDDK-tagged Protein PURIFICATION GEL was washed with a washing buffer (20 mmol/L HEPES-NaOH, 500 mmol/L sodium chloride, 1% ethylene glycol, 0.1% pluronic F-68 (pH 8.0)) and the bound protein was eluted with elution buffer 1 (20 mmol/L HEPES-NaOH, 100 μg/mL peptide (amino acid sequence DYKDDDDK) (SEQ ID NO: 1), 500 mmol/L sodium chloride, 1% ethylene glycol, 0.1% pluronic F-68 (pH 8.0)).
The eluted fractions containing FLAG-Tagged protein were pooled, concentrated by an ultrafiltration method, added to a gel filtration column (HiLoad 26/60 Superdex 200 (GE Healthcare, model number 17-1070-01)), and eluted with elution buffer 2 (20 mmol/L HEPES-NaOH, 150 mmol/L sodium chloride, 0.5 mmol/L ethylenediaminetetraacetic acid (EDTA), 1% ethylene glycol, 0.1% pluronic F-68 (pH 8.0)). The eluted fractions were pooled and preserved at −80° C.
0.025 U/mL PDH (porcine heart PDH complex, Sigma P7032) and 0.5 μg/mL hPDHK1 were mixed in an assay buffer (50 mmol/L 3-morpholinopropanesulfonic acid (pH 7.0), 20 mmol/L dipotassium hydrogen phosphate, 60 mmol/L potassium chloride, 2 mmol/L magnesium chloride, 0.4 mmol/L EDTA, 0.2% poloxamer, 2 mmol/L dithiothreitol), and the mixture was incubated at 4° C. overnight to obtain a PDH/hPDHK1 complex solution. In the assay buffer, 0.025 U/mL PDH was mixed and incubated at 4° C. overnight to prepare a PDH solution.
The test compounds were diluted with dimethyl sulfoxide (DMSO). To measure an inhibitory action of the test compound on the PDHK activity in the PDH/hPDHK1 complex solution, PDH/hPDHK1 complex solution (20 μL), test compound (1.5 μL) and 0.353 μmol/L ATP (diluted with assay buffer) (8.5 μL) were added to a 384 well microplate (Greiner Bio-One 781801) and PDHK reaction was performed at room temperature for 45 min (test compound well). DMSO (1.5 μL) was added to control wells instead of test compound. In addition, DMSO (1.5 μL) was added to blank wells instead of the test compound, and PDH solution was added instead of the PDH/hPDHK1 complex solution. […]

Experiment [2] concerns the target human PDHK2 (hPDHK2) (Homo sapiens (Human), UniProt Q15119). Briefly: Inhibitory action of PDHK2 activity in vitro (residual PDH activity after PDHK reaction). The note with it: for pIC50: PDH/hPDHK2 complex solution, PDHK reaction at room temperature for 45 min, NADH absorbance at 340 nm, read-out: kPDK2 IC50. It is filed as biochemical. The procedure: as §1
(Inhibitory Action of PDHK2 Activity)
In the case of human PDHK2 (hPDHK2, NCBI Reference Database Accession number NM_002611.4), modified hPDHK2 cDNA wherein FLAG-Tag sequence was added to the N terminus of hPDHK2 cDNA clone (pReceiver-M01/PDK2-GeneCopoeia) as the base was prepared by PCR and ligated to the NdeI/EcoRI site of pET-17b vector. The recombinant construct was transformed into Escherichia coli DH5a. The recombinant clones were identified, and plasmid DNA was isolated and subjected to the DNA sequence analysis. One clone which had the expected nucleic acid sequence was selected for expression work.
For expression of hPDHK2 activity, Escherichia coli strain BL21(DE3) cells were transformed with the pET17b vector containing modified hPDHK2 cDNA. The Escherichia coli were grown to an optical density 0.6 ([…]) at 30° C. Protein expression was induced by the addition of 500 μmol/L isopropyl-β-thiogalactopyranoside. The Escherichia coli were cultured at 20° C. for 17-18 hr and harvested by centrifugation. The harvested Escherichia coli was resuspended in a suspension buffer (20 mmol/L HEPES-NaOH, 500 mmol/L sodium chloride, 1% ethylene glycol, 0.1% pluronic F-68 (pH 8.0), cOmplete, EDTA-free (pH 8.0)), and disrupted by a microfluidizer. The precipitate was removed by centrifugation and the supernatant was added to DDDDK-tagged Protein PURIFICATION GEL. DDDDK-tagged Protein PURIFICATION GEL was washed with a washing buffer (20 mmol/L HEPES-NaOH, 500 mmol/L sodium chloride, 1% ethylene glycol, 0.1% pluronic F-68 (pH 8.0)) and the bound protein was eluted with elution buffer 1 (20 mmol/L HEPES-NaOH, 100 μg/mL peptide (amino acid sequence DYKDDDDK) (SEQ ID NO: 1), 500 mmol/L sodium chloride, 1% ethylene glycol, 0.1% pluronic F-68 (pH 8.0)). The eluted fractions containing FLAG-Tagged protein were pooled, concentrated by an ultrafiltration method, added to a gel filtration column (HiLoad 26/60 Superdex 200), and eluted with elution buffer 2 (20 mmol/L HEPES-NaOH, 150 mmol/L sodium chloride, 0.5 mmol/L ethylenediaminetetraacetic acid (EDTA), 1% ethylene glycol, 0.1% pluronic F-68 (pH 8.0)). The eluted fractions were pooled and preserved at −80° C.
0.025 U/mL PDH and 0.5 μg/mL hPDHK2 were mixed in an assay buffer (50 mmol/L 3-morpholinopropanesulfonic acid (pH 7.0), 20 mmol/L dipotassium hydrogen phosphate, 60 mmol/L potassium chloride, 2 mmol/L magnesium chloride, 0.4 mmol/L EDTA, 0.2% poloxamer, 2 mmol/L dithiothreitol), and the mixture was incubated at 4° C. overnight to obtain a PDH/hPDHK2 complex solution. In the assay buffer, 0.025 U/mL PDH was mixed and incubated at 4° C. overnight to prepare a PDH solution.
The test compounds were diluted with DMSO. To measure an inhibitory action of the test compound on the PDHK activity in the PDH/hPDHK2 complex solution, PDH/hPDHK2 complex solution (20 μL), test compound (1.5 μL) and 1.06 μmol/L ATP (diluted with assay buffer) (8.5 μL) were added to a 384 well microplate and PDHK reaction was performed at room temperature for 45 min (test compound well). DMSO (1.5 μL) was added to control wells instead of test compound. In addition, DMSO (1.5 μL) was added to blank wells instead of the test compound, and PDH solution was added instead of the PDH/hPDHK2 complex solution. To measure an inhibitory action of the test compound on the PDHK activity inherent in the PDH solution, a test compound was added and the PDH solution instead of the PDH/hPDHK2 complex solution was added to a blank+test compound well.
Then, 10 μL of substrates (5 mmol/L sodium pyruvate, 5 mmol/L Coenzyme A, 12 mmol/L NAD, 5 mmol/L thiamine pyrophosphate, diluted with assay buffer) were added. The mixture was incubated at room temperature for 90 min, and the residual PDH activity was measured. […]

human PDHK1 (hPDHK1), sequence (Q15118 29-436): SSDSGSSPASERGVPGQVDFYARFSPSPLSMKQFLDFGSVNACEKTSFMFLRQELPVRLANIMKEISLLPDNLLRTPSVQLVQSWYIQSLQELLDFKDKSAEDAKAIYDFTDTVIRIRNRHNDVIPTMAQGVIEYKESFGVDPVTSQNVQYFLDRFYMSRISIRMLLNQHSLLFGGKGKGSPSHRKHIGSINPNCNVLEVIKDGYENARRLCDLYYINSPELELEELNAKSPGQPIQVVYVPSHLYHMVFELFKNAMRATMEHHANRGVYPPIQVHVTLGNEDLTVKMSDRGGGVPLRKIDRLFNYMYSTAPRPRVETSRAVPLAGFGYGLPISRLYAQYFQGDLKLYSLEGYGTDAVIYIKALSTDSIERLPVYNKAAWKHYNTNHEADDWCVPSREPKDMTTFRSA

For `C[C@H]1CN(C(=O)c2nn(C)c3cc(C#N)ccc23)Cc2cnc([C@@](C)(O)C(F)(F)F)n21` [Example 5, 1-methyl-3-((S)-5-methyl-3-((R)-1,1,1-trifluoro-2-hydroxypropan-2-yl)-5,6,7,8-tetrahydroimidazo[1,5-a]pyrazine-7-carbonyl)-1H-indazole-6-carbonitrile], in experiment [1], the pIC50 was more than 8.52 and the inhibition at 0.003 µM is 55%. For the same compound, in experiment [2], the pIC50 is 8.30.

As for `Cc1cc(C#N)ccc1-c1cc(C(=O)N2Cc3cnc([C@@](C)(O)C(F)(F)F)n3[C@@H](C)C2)ccn1` [Example 63], the negative logarithm of the IC50 (pIC50) is 8.30 in experiment [1] and 8.15 in experiment [2].

As for `C[C@H]1CN(C(=O)c2ccc(-c3ccc(F)cc3)cn2)Cc2cnc([C@@](C)(O)C(F)(F)F)n21` [Example 42], the figures for the pIC50 in experiment [1] and in experiment [2] were 8.40 and 8.30, respectively.

Regarding `C[C@H]1CN(C(=O)c2cccc(-c3ccc(C#N)cc3)n2)Cc2cnc([C@@](C)(O)C(F)(F)F)n21` [Example 43], in experiment [1], the pIC50 was more than 8.52 and the inhibition at 0.003 µM was 52%. Moreover, in experiment [2], the pIC50 was 8.30.

For the compound `C[C@H]1CN(C(=O)c2cc(C3CC3)nc(C(F)(F)F)c2)Cc2cnc([C@@](C)(O)C(F)(F)F)n21` [Example 98], the negative logarithm of the IC50 (pIC50) in experiment [1] and in experiment [2] was 8.22 in each case.

With `C[C@H]1CN(C(=O)c2cc(-c3ccc(C#N)cc3)n(C3CC3)n2)Cc2cnc([C@@](C)(O)C(F)(F)F)n21` [Example 53, 4-(1-cyclopropyl-3-((S)-5-methyl-3-((R)-1,1,1-trifluoro-2-hydroxypropan-2-yl)-5,6,7,8-tetrahydroimidazo[1,5-a]pyrazine-7-carbonyl)-1H-pyrazol-5-yl)benzonitrile], the pIC50 in experiment [1] is 8.40; in experiment [2], 8.10.

Turning to `C[C@H]1CN(C(=O)c2cc(C3CC3)nn2C)Cc2cnc([C@@](C)(O)C(F)(F)F)n21` [Example 14], the pIC50 in experiment [1] and in experiment [2] was more than 8.52 each time. Further, in experiment [1], the inhibition at 0.003 µM is 68%. Moreover, in experiment [2] (lowest concentration of the test compound in the assay (<3 nmol/L), shown when IC50 value could not be calculated), the “hPDHK2 inhibitory rate at the lowest concentration of the test compound” value is reported as 57%.

Take `C[C@H]1CN(C(=O)c2cc(-c3ccccc3)nn2C)Cc2nnc([C@@](C)(O)C(F)(F)F)n21` [Example 122, ((S)-5-methyl-3-((R)-1,1,1-trifluoro-2-hydroxypropan-2-yl)-5,6-dihydro-[1,2,4]triazolo[4,3-a]pyrazin-7(8H)-yl)(1-methyl-3-phenyl-1H-pyrazol-5-yl)methanone]: the figures for the pIC50 in experiment [1] and in experiment [2] were 8.30 and 8.15, respectively.

As to `C[C@H]1CN(C(=O)c2ccc(=O)n(C3CC3)c2)Cc2cnc([C@@](C)(O)C(F)(F)F)n21` [Example 24], the pIC50 in experiment [1] was 7.38; in experiment [2] it was 7.44.

On to `C[C@H]1CN(C(=O)c2cc(-c3ccc(F)cc3)nn2C)Cc2cnc([C@@](C)(O)C(F)(F)F)n21` [Example 16, (3-(4-fluorophenyl)-1-methyl-1H-pyrazol-5-yl) ((S)-5-methyl-3-((R)-1,1,1-trifluoro-2-hydroxypropan-2-yl)-5,6-dihydroimidazo[1,5-a]pyrazin-7(8H)-yl)methanone], for which the pIC50 in experiment [1] was 8.22; in experiment [2] it was 8.15.

For `C[C@H]1CN(C(=O)c2ccn(C3CC3)n2)Cc2onc([C@@](C)(O)C(F)(F)F)c21` [Example 110], the figures for the pIC50 in experiment [1] and in experiment [2] were 8.15 and 7.89, respectively.

For `C[C@H]1CN(C(=O)c2c3ccc(C#N)cc3nn2C)Cc2cnc([C@@](C)(O)C(F)(F)F)n21` [Example 4, 2-methyl-3-((S)-5-methyl-3-((R)-1,1,1-trifluoro-2-hydroxypropan-2-yl)-5,6,7,8-tetrahydroimidazo[1,5-a]pyrazine-7-carbonyl)-2H-indazole-6-carbonitrile], the figures for the pIC50 in experiment [1] and in experiment [2] were 8.40 and 8.30, respectively.

As for `C[C@H]1CN(C(=O)c2cnc3ccc(F)cn23)Cc2cnc([C@@](C)(O)C(F)(F)F)n21` [Example 8], the figures for the pIC50 in experiment [1] and in experiment [2] were 7.31 and 7.47, respectively.

As for `C[C@H]1CN(C(=O)c2cc(-c3ccc(S(C)(=O)=O)cc3)nn2C)Cc2cnc([C@@](C)(O)C(F)(F)F)n21` [Example 44], the pIC50 is 8.30 in experiment [1] and 8.15 in experiment [2].
